Earlier results, collected in patent US6691638B2, “Methods for gamete production in birds” (North Carolina State University, priority 2000, dated 2004).

Tests used:
PGCs [1] = settings: administration in rats; cited from earlier work
gonadal germ cells = settings: cited from earlier work
[2] = forms a suspension; cited from earlier work
PGCs [3] = settings: cited from earlier work
germ cells = settings: 100 μg BU in sesame oil; cited from earlier work
[4] = in vivo; cited from earlier work
quail eggs = settings: albumen suspension of BU; cited from earlier work
chick embryos = settings: injection into the yolk sac; cited from earlier work
[5] = 50 μg BU suspended in sesame oil, 6 day-old chick embryos
[6] = after injection of germinal crescent cells into BU-treated embryos

SMILES: CS(=O)(=O)OCCCCOS(C)(=O)=O [BU, 1,4-butanediol dimethane sulfonate]
- Effect on development of PGCs (PGCs [1]): markedly impair
- Increase of the rate of germline chimerism (gonadal germ cells; compared to non-BU treated embryos, estimated): 3.5 fold
- Effect on gonadal germ cells in chick embryos (gonadal germ cells; injection of 25, 50 and 250 μg BU): significantly reduced
- Solubility in aqueous solutions [2]: relatively insoluble
- Reduction of PGCs in the left gonad (PGCs [3]; [5]): 75%
- Reduction of PGCs in the right gonad (PGCs [3]; [5]): 78%
- PGC numbers, left gonad, % of controls (PGCs [3]; [6]): 72 % of controls
- PGC numbers, right gonad, % of controls (PGCs [3]; [6]): 115 % of controls
- Sterility index (germ cells): ≥ 95%
- Half-life [4]: approximately 10 hours
- Effect on hatchability (quail eggs): significant declines in hatchability
- Teratogenic effect (chick embryos): multiple malformations
